Test results: article PMC9770967, “Native holdup (nHU) to measure binding affinities from cell extracts” (Science Advances, 2022)
*1 amine or outer side, *2 acyl side, *3 side chain or, on linkers, in order; H or OH if unused. Where a SMILES comes first, the peptide text is derived from it. The star is where a group is joined. X1 = O=C(CCCC[C@@H]1SC[C@@H]2NC(=O)N[C@@H]21)NCCCOCCOCCOCCCN*; Suc = O=C(CCC(=O)[*:2])[*:1]

Columns and labels:
[1] = biological target: isolated PDZ domain of SNX27; conditions: 10-mer PBM peptide vs isolated PDZ domain, holdup; cited from earlier work
[2] = biological target: SCRIB PDZ1; conditions: fragmentomic, isolated PDZ domain; cited from earlier work
Text: Supplement sciadv.ade3828_table_s1.zip/sciadv.ade3828_table_s1.xlsx, sheet "nHU-WB_SP" | column: Domain-motif fragmentomic affinities (ProfAff)

[3] = biological target: SCRIB PDZ2; conditions: fragmentomic, isolated PDZ domain; cited from earlier work
Text: (§1) Supplement sciadv.ade3828_table_s1.zip/sciadv.ade3828_table_s1.xlsx, sheet "nHU-WB_SP"

[4] = biological target: SCRIB PDZ3; conditions: fragmentomic, isolated PDZ domain; cited from earlier work
Text: as §1

[5] = biological target: SCRIB PDZ4; conditions: fragmentomic, isolated PDZ domain; cited from earlier work
Text: as §1

[6] = biological target: full-length SNX27; experiment: nHU-MS, recombinant full-length SNX27 bait, total Jurkat extracts; type: binding, human; conditions: apparent, Fig. 4D, n = 6
Description: The empty His6-AviTag-MBP-TEV vector was used to produce biotinylated MBP for control experiments. Proteins were coexpressed with BirA biotin ligase (PET21a-BirA, Addgene, no. 20857) in Escherichia coli BL21(DE3) cells. At isopropyl-β-D-thiogalactopyranoside (IPTG) induction (1 mM IPTG at 18°C overnight), 50 μM biotin was added to the media. Harvested cells were lysed in a buffer containing 50 mM tris (pH 7.5), 150 to 300 mM NaCl, 50 μM biotin, 2 mM β-mercaptoethanol, cOmplete EDTA-free protease inhibitor cocktail (Roche, Basel, Switzerland), 1% Triton X-100, and trace amount of deoxyribonuclease, ribonuclease, and lysozyme. Lysates were frozen at −20°C before further purification steps. Lysates were sonicated and centrifuged for clarification. Expressed proteins were captured on in-house prepacked Ni-IDA (Protino Ni-IDA Resin, Macherey-Nagel, Duren, Germany) columns and were washed with at least 10 column volumes of cold wash buffer [50 mM tris (pH 7.5), 150 mM NaCl, and 2 mM β-mercaptoethanol] before elution with 250 mM imidazole. The Ni elution was collected directly on a preequilibrated amylose column (amylose high flow resin, New England Biolabs, Ipswich, MA). […] The concentration of proteins was determined by their ultraviolet absorption at 280 nm before aliquots were snap-frozen in liquid nitrogen and stored at −80°C. […]

[7] = biological target: endogenous full-length SCRIB (Homo sapiens, UniProt Q14160); type: binding; conditions: titration, Jurkat extract
[8] = biological target: isolated PDZ domain of SNX27; conditions: calorimetry; cited from earlier work
[9] = biological target: SNX27_PDZ; experiment: nHU-MS, SNX27_PDZ bait, total SH-SY5Y extracts; type: binding, human
Description: The empty His6-AviTag-MBP-TEV vector was used to produce biotinylated MBP for control experiments. Proteins were coexpressed with BirA biotin ligase (PET21a-BirA, Addgene, no. 20857) in Escherichia coli BL21(DE3) cells. At isopropyl-β-D-thiogalactopyranoside (IPTG) induction (1 mM IPTG at 18°C overnight), 50 μM biotin was added to the media. Harvested cells were lysed in a buffer containing 50 mM tris (pH 7.5), 150 to 300 mM NaCl, 50 μM biotin, 2 mM β-mercaptoethanol, cOmplete EDTA-free protease inhibitor cocktail (Roche, Basel, Switzerland), 1% Triton X-100, and trace amount of deoxyribonuclease, ribonuclease, and lysozyme. Lysates were frozen at −20°C before further purification steps. Lysates were sonicated and centrifuged for clarification. Expressed proteins were captured on in-house prepacked Ni-IDA (Protino Ni-IDA Resin, Macherey-Nagel, Duren, Germany) columns and were washed with at least 10 column volumes of cold wash buffer [50 mM tris (pH 7.5), 150 mM NaCl, and 2 mM β-mercaptoethanol] before elution with 250 mM imidazole. The Ni elution was collected directly on a preequilibrated amylose column (amylose high flow resin, New England Biolabs, Ipswich, MA). Amylose column was washed with 5 column volumes of cold wash buffer before fractionated elution in a buffer containing 25 mM Hepes (pH 7.5), 150 mM NaCl, 1 mM TCEP, 10% glycerol, 5 mM maltose, and cOmplete EDTA-free protease inhibitor cocktail. The concentration of proteins was determined by their ultraviolet absorption at 280 nm before aliquots were snap-frozen in liquid nitrogen and stored at −80°C.
For saturating streptavidin resin with biotinylated peptides or biotin, 50 μl of streptavidin resin was mixed with biotin or peptide at 40 to 60 μM concentration in 6 to 6.5 resin volume for 60 min. To saturate streptavidin resin with biotinylated proteins, 50 μl of streptavidin resin (Streptavidin Sepharose High Performance, Cytiva) was mixed with biotinylated MBP or MBP-PDZ at 40 to 50 μM concentration in 20× resin volume for 60 min. After saturation, resins were washed a single time [10 resin volume, holdup buffer: 50 mM tris (pH 7.5), 300 mM NaCl, and 1 mM TCEP, 0.22-μm filtered] and were depleted with biotin (10 resin volume, 10 min, holdup buffer supplemented with 100 μM biotin). Last, resins were washed two times (10 resin volume, holdup buffer).
For single-point nHU experiments carried out at ~10 μM bait concentration, 50 μl of saturated streptavidin resin was mixed with 200 μl of cell lysate (2 mg/ml). Titration experiments were carried out by mixing control and bait-saturated resin and keeping the total resin volume constant; e.g., ~5 μM bait concentration can be achieved by mixing 25 μl of bait-saturated streptavidin resin with 25 μl of control resin and 200 μl of cell lysate (2 mg/ml). Control and bait-saturated resins were prepared in larger amounts, and a serial dilution was prepared with these presaturated resins to achieve different resin ratios.
Unless specified elswhere, the nHU mixture was incubated at 4°C for 2 hours. After the incubation ended, the resin was separated from the supernatant by a brief centrifugation (15 s, 2000 g). Then, half of the supernatant was removed by pipetting without any delay to avoid any resin contamination; e.g., 100 μl of supernatant is collected if 200 μl of cell lysate was used as analyte. Alternatively, the supernatant can be centrifuged an additional time to clarify it further, removing any possible resin contamination. In principle, the separation of the supernatant should be as fast as possible since any delay can perturb the equilibrium. […] Alternatively, the resin can be separated from the supernatant using filter plates (e.g., various products of Millipore, Burlington, MA) or spin columns (e.g., Pierce spin cups—cellulose acetate filter from Thermo Fisher Scientific, Waltham, MA) to achieve faster separation. […]

[10] = system: SNX27_PDZ; experiment: AP-MS control pull-down on leftover resin, SNX27_PDZ bait, total SH-SY5Y extracts; type: binding, human; conditions: n = 6
Description: Leftover beads from nHU-MS experiments were washed three times immediately after the separation of the supernatant [10 resin volume in buffer containing 50 mM tris (pH 8.5), 150 mM NaCl, 1% Triton X-100, 10× cOmplete EDTA-free protease inhibitor cocktail, 2 mM EDTA, and 1 mM TCEP]. Then, the beads were washed two times [10 resin volume buffer containing 50 mM tris (pH 8.5), 150 mM NaCl, and 1 mM TCEP]. Last, captured protein was eluted from the resin in two steps, and the eluted fractions were pooled. For each elution, the beads were incubated for 30 min with three resin volume buffer containing 20 mM tris (pH 8.5), 100 mM NaCl, 500 μM TCEP, and 8 M urea. Between each step, the beads were separated by mild centrifugation, and the supernatant was removed by gentle pipetting.
The nHU samples were precipitated with trichloroacetic acid (TCA) 20% overnight at 4°C and centrifuged at 14,000 rpm for 10 min at 4°C. The protein pellets were washed twice with 1 ml of cold acetone and air-dried. The protein extracts were solubilized in 8 M urea, reduced with 5 mM TCEP for 30 min, and alkylated with 10 mM iodoacetamide for 30 min in the dark. Double digestion was performed at 37°C with 500 ng of endoproteinase Lys-C (Wako, Richmond, USA) for 4 hours, followed by fourfold dilution and an overnight digestion with 500 ng of trypsin (Promega, Charbonnieres les Bains, France). Peptide mixtures were then desalted on a C18 spin-column and dried on a speed vacuum.
Samples were analyzed using an Ultimate 3000 nano-RSLC coupled in line via a nano-electrospray ionization source, with an LTQ-Orbitrap ELITE mass spectrometer (Thermo Fisher Scientific, San Jose, CA) or with the Orbitrap Exploris 480 mass spectrometer (Thermo Fisher Scientific, Bremen, Germany) equipped with a high field asymmetric ion mobility spectrometry (FAIMS) module. Peptide mixtures were injected in 0.1% trifluoroacetic acid on a C18 Acclaim PepMap100 trap column [75 μm inner diameter (ID) × 2 cm, 3 μm, 100 Å, Thermo Fisher Scientific] for 3 min at 5 μl/min with 2% acetonitrile (ACN) and 0.1% formic acid (FA) in H2O and then separated on a C18 Acclaim PepMap100 nano-column (75 μm ID × 50 cm, 2.6 μm, 150 Å, Thermo Fisher Scientific) at 300 nl/min and 40°C with a 90-min linear gradient from 5 to 30% buffer B (A: 0.1% FA in H2O/B: 80% ACN, 0.1% FA in H2O) and regeneration at 5% B. Spray voltage was set to 2.1 kV and heated capillary temperature was set to 280°C.
For the Orbitrap Elite, the mass spectrometer was operated in positive ionization mode in data-dependent mode with survey scans from mass/charge ratio (m/z) 350 to 1500 acquired in the Orbitrap at a resolution of 120,000 at m/z 400. […]

Sequence of endogenous full-length SCRIB (Q14160 whole entry, the tested form may be a part): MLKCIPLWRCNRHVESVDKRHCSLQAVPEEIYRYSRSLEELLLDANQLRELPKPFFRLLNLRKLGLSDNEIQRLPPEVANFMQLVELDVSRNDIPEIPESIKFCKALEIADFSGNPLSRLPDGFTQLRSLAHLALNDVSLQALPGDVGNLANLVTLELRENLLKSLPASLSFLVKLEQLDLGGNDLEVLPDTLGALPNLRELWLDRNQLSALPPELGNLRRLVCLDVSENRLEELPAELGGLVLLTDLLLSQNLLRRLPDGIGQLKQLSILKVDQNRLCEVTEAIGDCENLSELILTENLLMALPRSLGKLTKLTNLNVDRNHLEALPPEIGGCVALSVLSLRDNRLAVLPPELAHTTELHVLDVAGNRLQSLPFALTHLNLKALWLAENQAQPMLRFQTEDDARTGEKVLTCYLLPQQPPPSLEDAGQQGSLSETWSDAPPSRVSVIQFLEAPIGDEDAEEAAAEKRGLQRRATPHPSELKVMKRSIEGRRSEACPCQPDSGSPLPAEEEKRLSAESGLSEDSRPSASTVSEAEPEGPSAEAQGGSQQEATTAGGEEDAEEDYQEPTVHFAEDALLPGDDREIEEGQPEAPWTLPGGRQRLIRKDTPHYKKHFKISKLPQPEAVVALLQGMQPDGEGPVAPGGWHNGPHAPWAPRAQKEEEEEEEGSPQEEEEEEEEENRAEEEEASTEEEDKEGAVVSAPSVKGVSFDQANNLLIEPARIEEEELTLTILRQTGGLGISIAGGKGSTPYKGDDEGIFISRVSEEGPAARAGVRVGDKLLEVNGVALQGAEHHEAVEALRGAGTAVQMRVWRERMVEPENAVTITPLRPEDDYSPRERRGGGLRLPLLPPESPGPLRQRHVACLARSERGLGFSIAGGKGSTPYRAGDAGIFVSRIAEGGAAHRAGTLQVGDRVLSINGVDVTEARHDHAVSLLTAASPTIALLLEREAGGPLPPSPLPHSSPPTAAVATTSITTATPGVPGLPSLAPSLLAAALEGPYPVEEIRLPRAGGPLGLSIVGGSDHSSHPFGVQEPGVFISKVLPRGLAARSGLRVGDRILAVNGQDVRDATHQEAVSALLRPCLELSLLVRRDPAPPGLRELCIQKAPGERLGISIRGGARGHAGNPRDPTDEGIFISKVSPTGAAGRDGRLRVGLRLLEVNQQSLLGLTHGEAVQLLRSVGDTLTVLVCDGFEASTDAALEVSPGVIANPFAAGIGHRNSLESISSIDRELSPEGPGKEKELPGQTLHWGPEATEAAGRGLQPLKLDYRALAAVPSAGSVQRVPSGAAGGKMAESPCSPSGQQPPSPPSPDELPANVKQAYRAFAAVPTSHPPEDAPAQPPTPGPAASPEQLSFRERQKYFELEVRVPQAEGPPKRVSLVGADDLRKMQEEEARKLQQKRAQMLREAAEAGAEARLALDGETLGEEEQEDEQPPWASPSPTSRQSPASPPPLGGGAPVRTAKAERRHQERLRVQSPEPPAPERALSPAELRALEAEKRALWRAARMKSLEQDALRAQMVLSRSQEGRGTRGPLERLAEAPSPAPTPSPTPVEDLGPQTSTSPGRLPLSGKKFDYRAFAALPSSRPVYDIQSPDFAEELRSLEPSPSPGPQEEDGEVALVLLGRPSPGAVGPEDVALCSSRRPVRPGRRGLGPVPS

In the case of CC(C)C[C@H](NC(=O)[C@H](CO)NC(=O)[C@H](CO)NC(=O)CCC(=O)NCCCOCCOCCOCCCNC(=O)CCCC[C@@H]1SC[C@@H]2NC(=O)N[C@@H]21)C(=O)N[C@@H](CCC(N)=O)C(=O)N[C@@H](CO)C(=O)N[C@@H](CC(C)C)C(=O)N[C@@H](CCC(=O)O)C(=O)N[C@H](C(=O)N[C@@H](CO)C(=O)N[C@H](C(=O)O)C(C)C)[C@@H](C)O [ATP2B4] ({X1-Suc}-SSLQSLETSV-OH; C-terminus assumed), the “pKd (fragmentomic affinity)” value [1] is given as 5.70, the pKd_PDZ1 [2] is given as 5.03 and the pKd_PDZ2 [3] is given as 4.90. The pKd_PDZ3 [4] was 5.11 and the pKd_PDZ4 [5] was 4.38.

SNX1: component of the SNX-BAR complex gave a pKapp [6] of 5.47.

In the case of CC[C@H](C)[C@H](NC(=O)CCC(=O)NCCCOCCOCCOCCCNC(=O)CCCC[C@@H]1SC[C@@H]2NC(=O)N[C@@H]21)C(=O)N[C@@H](CCC(N)=O)C(=O)N[C@@H](CCCNC(=N)N)C(=O)N[C@@H](CCC(=O)O)C(=O)N[C@@H](CC(=O)O)C(=O)N[C@@H](CCC(N)=O)C(=O)N[C@@H](CCC(=O)O)C(=O)N[C@H](C(=O)N[C@@H](C)C(=O)N[C@H](C(=O)O)C(C)C)[C@@H](C)O [DGKZ] ({X1-Suc}-IQREDQETAV-OH; C-terminus assumed), the Hill coefficient ([7]; Hill equation fit, three replicates) is given as 0.6, the cooperativity [7] is given as “negative cooperativity” and the “pKd (fragmentomic affinity)” value [1] is given as 6.0. The pKd [8] was 5.7, the pKd_PDZ1 [2] was 4.71 and the pKd_PDZ2 [3] was 4.86. The pKd_PDZ3 [4] was 5.05 and the pKd_PDZ4 [5] was 4.40.

For VTN: Vitronectin, the pKapp_HU_not_filtered ([9]; apparent, Eq. 2, not filtered for significance) was 4.715, the pKapp_significant_binders_HU ([9]; apparent, Eq. 2, significant binders (1 σ, P < 0.05)) was 4.715 and the BI_HU ([9]; n = 6) was 0.3408. For the same compound, the “FC_HU (log2 fold change)” value ([9]; n = 6) was -0.6012, the Ratio_HU ([9]; n = 6) was 0.6592 and the “FC_AP (log2 fold change)” value [10] was 0.6536. It also gave a Ratio_AP [10] of 1.573.
